The values below come from patent publication EP0552418A1, “N-substituted-3-iodopropiolamide, production and use thereof” (TAKEDA CHEMICAL INDUSTRIES, LTD., priority 1992, dated 1993).

The subject of test [1] is Aspergillus Niger, Penicillium funiculosum, Rhizopus javanicus, Aureobasidium pullulans, Gliocladium virens. Nature of the test: Fungicide activity for wood fungicide, sum over the five fungi and damage value. In kind it is cell-based. Particulars: for damage value (D = S₁ / S₀ × 100): relative to untreated specimens (100.0), lower = higher activity; for wood fungicide activity: statement in words on Table 3. Here is the method: This test was conducted according to Specification No.2 of Japan Wood Preserving Association, enacted in 1979 and titled "Test methods of fungicide activity for wood fungicide".
• ① Aspergillus niger van Tieghem IFO 6341 = ATCC 6275 • ② Penicillium funiculosum Thom (formerly : Penicillium luteum Zukal) IFO 6345 = ATCC 9644 . • ③ Rhizopus javanicus Takeda (formerly : Rhizopus nigricans Ehrenberg S.N. 32) IFO 6354 • ④ Aureobasidium pullulans (de Bary) Arnaud IFO 6353 = IAM (H. Iizuka, F-24) • ⑤ Gliocladium virens Miller, Gidden & Fosteb IFO 6355 = ATCC 9645 (formerly : Trichoderma viride, T.I.)
The average rating (A) was determined for each type of fungi with the following equation: Average rating (A) = (a₁ + a₂ + a₃ + a₄ + a₅ + a₆ ) / 6 [formula] wherein a₁, a₂ ...a₆ : rating for each test specimen.
The damage value was determined with the following equation after determining the sum of average rating by adding each rating of test specimens for each concentration of fungicide solution: S = A₁ + A₂ + A₃ + A₄ + A₅ [formula] wherein A₁, A₂.., A₅: average rating for each type of fungi D = S₁ / S₀ × 100 [formula] wherein S₀ : S for untreated test specimens S₁ : S for specimens treated with certain concentration of fungicide solution
Both lower rating value and lower damage value correspond to higher wood fungicide activity. […]

Another test has as its system wood rot fungi. Nature of the test: Preserving activity for wood preservatives, overall statement for both wood rot fungi. It counts as cell-based, Tyromyces palustris, Coriolus versicolor. The note with it: statement in words on Table 2. Here is the method: This test was conducted according to Specification No. 1 of Japan Wood Preserving Association, enacted in 1979, amended in 1989 and titled "Test methods of preserving activity for wood preservatives used in the coating, spraying and dipping treatment".
• ① Tyromyces palustris (Ber. et Curt.) Murr., FFPRI 0507 --"Ouzuratake" • ② Coriolus versicolor(L. ex Fr.) Quélet, FFPRI 1030 --"Kawaratake" These two fungi are classified as wood rot fungi.
The antimicrobial operation was performed with specifying types of fungi for corresponding type of trees. The combinations were as follows: Cedar----Tyromyces palustris ("Ouzuratake") Beech----Coriolus versicolor ("Kawaratake")
The test results were presented by the ratio of average weight loss of test specimens due to antimicrobial operation. The standard deviation and coefficient of variation were also determined. The ratio of weight loss for each test specimen was calculated by the following equation, and its average was also determined: The ratio of weight loss(%) = (W₃ - W₄ ) / W₃ × 100. Lower value of the ratio of weight loss corresponds to higher wood preserving activity. […]

Structures are written as SMILES.

With `CC(C)(C)NC(=O)C#CI` [Example 1, N-(tert-Butyl)-3-iodopropiolamide], in test [1] (0.5% xylene solution), the “damage value (D = S₁ / S₀ × 100)” value is given as 13.3. The wood fungicide activity entry in test [1] was “excellent wood fungicide activity”. The wood preserving activity entry in the test with wood rot fungi is reported as “excellent wood preserving activity”.

Turning to `CCCCCCCCCCNC(=O)C#CI` [Example 2, N-(n-Decyl)-3-iodopropiolamide], the “damage value (D = S₁ / S₀ × 100)” value in test [1] (0.5% xylene solution) is given as 62.2. In the test with wood rot fungi, the wood preserving activity result was “excellent wood preserving activity”.

Turning to `CCCCNC(=O)C#CI` [Example 4, N-(n-Butyl)-3-iodopropiolamide], the wood fungicide activity entry in test [1] is given as “excellent wood fungicide activity”. For the same compound, in the test on wood rot fungi, the wood preserving activity entry was “excellent wood preserving activity”.

For `CCC(C)NC(=O)C#CI` (stereo not drawn) [Example 5, N-(sec-Butyl)-3-iodopropiolamide], in test [1] (0.5% xylene solution), the “damage value (D = S₁ / S₀ × 100)” value worked out at 28.9. In addition, in test [1], the wood fungicide activity result was “excellent wood fungicide activity”. The wood preserving activity entry in the test on wood rot fungi is “excellent wood preserving activity”.

Regarding `CC(C)CNC(=O)C#CI` [Example 6, N-Isobutyl-3-iodopropiolamide], the “damage value (D = S₁ / S₀ × 100)” value in test [1] (0.5% xylene solution) is 20.2. Moreover, the wood fungicide activity entry in test [1] is “excellent wood fungicide activity”. Moreover, in the test on wood rot fungi, the wood preserving activity result was “excellent wood preserving activity”.

In the case of `CCCCCNC(=O)C#CI` [Example 7, N-(n-Pentyl)-3-iodopropiolamide], the “damage value (D = S₁ / S₀ × 100)” value in test [1] (0.5% xylene solution) came to 34.4. In addition, in the test with wood rot fungi, the wood preserving activity entry was “excellent wood preserving activity”.

As for `CCCCCCNC(=O)C#CI` [Example 8, N-(n-Hexyl)-3-iodopropiolamide], in test [1] (0.5% xylene solution), the “damage value (D = S₁ / S₀ × 100)” value was determined as 23.3. The wood fungicide activity result in test [1] was “excellent wood fungicide activity”. The wood preserving activity result with wood rot fungi is “excellent wood preserving activity”.

As to `CCCCCCCCNC(=O)C#CI` [Example 10, N-(n-Octyl)-3-iodopropiolamide], in test [1] (0.5% xylene solution), the “damage value (D = S₁ / S₀ × 100)” value was 54.4.

As for `CCCCCCCCCNC(=O)C#CI` [Example 11, N-(n-Nonyl)-3-iodopropiolamide], the “damage value (D = S₁ / S₀ × 100)” value in test [1] (0.5% xylene solution) amounted to 82.2. The “Sum (S = A₁ + A₂ + A₃ + A₄ + A₅)” value in test [1] (0.5% xylene solution, sum of average ratings of five fungi, untreated 15.0) was found to be 12.3.
